Values after ≈ are worked out from the molar mass of the structure shown. *1 amine or outer side, *2 acyl side, *3 side chain or, on linkers, in order; H or OH if unused. Where a SMILES comes first, the peptide text is derived from it. [ ]: non-standard residue; d: D form. ξ: configuration not given here. Trp(1-(1,1-Me2-allyl)) = C=CC(C)(C)n1cc(C[C@H](N)C(=O)O)c2ccccc21; NMeGlu(4S-Me) = C[C@@H](C[C@@H](C(=O)[*:2])N(C)[*:1])C(=O)[*:3]; Tyr(3-NO2) = N[CH](Cc1ccc(O)c([N+](=O)[O-])c1)C(=O)O; X1 = CC(C)(C1CO1)n1cc(CC(N[*:1])C(=O)[*:2])c2ccccc21; X2 = CC(CC(C(=O)[*:2])N(C)[*:1])C(=O)O; Gly(E-crotyl) = C/C=C/C[C@H](N)C(=O)O; ξNle(4,5-dehydro) = CC=CCC(N)C(=O)O; NMeL = CN[CH](CC(C)C)C(=O)O
Legend:
[1] = system: M. smegmatis MC^2 155; test: Antimycobacterial broth dilution MIC; format: cell-based, Mycobacterium smegmatis; settings: Mycolicibacterium smegmatis, MC^2155, read-out: MIC
Protocol: (§1) To determine the antibacterial activities of these eight compounds (1–8), a preliminary screening of their antibacterial activities against a panel of Gram-positive and Gram-negative bacteria[6]–[8], M. smegmatis MC^2 155 and M. tuberculosis H37Rv, was conducted using a broth dilution method, [59]. Compounds 1–8 were dissolved in dimethylsulfoxide (DMSO) to give 3200 μg mL^−1 stock solutions. The stock solutions were then serially diluted to concentrations of 0.0625–128 μg mL^−1 with MH broth or 7H9 broth (added with 0.2% glycerol, 0.05% Tween 80). DMSO in MH broth or 7H9 broth was used as a negative control, and broth-containing bacteria was used as positive control. All experiments were performed in triplicate with kanamycin and rifampicin as control agents.

[2] = system: M. tuberculosis H37Rv; test: Anti-TB broth dilution MIC; format: cell-based, Mycobacterium tuberculosis; settings: Mycobacterium tuberculosis, H37RV, broth dilution, triplicate, n = 3
[3] = system: A549, human lung cancer cell line; test: MTT cytotoxicity; format: cell-based; settings: Homo sapiens
Protocol: (§2) Compounds 1–8 were evaluated for cytotoxicity using HeLa, HepG2, A549, CNE2, and MCF7 cell lines using a previously reported MTT method. The L02 and Huvec-12 cell lines were used as normal cell line controls. All these cell lines were obtained from American Type Culture Collection (ATCC) and cultured according to ATCC recommendations. Cell lines were checked for mycoplasma and profiled via short tandem repeat profiling to confirm their identity by the supplier. All experiments were performed in triplicate with doxorubicin and cis-platinum as control agents.

[4] = system: CNE2, human nasopharyngeal carcinoma cell line; test: MTT cytotoxicity; format: cell-based; settings: Homo sapiens, CNE-2
Protocol: as §2

[5] = system: HeLa, human cervical carcinoma cell line; test: MTT cytotoxicity; format: cell-based; settings: Homo sapiens
Protocol: as §2

[6] = system: HepG2, human hepatocellular carcinoma cell line; test: MTT cytotoxicity; format: cell-based; settings: Homo sapiens
Protocol: as §2

[7] = system: MCF7, human breast adenocarcinoma cell line; test: MTT cytotoxicity; format: cell-based; settings: Homo sapiens
Protocol: as §2

[8] = system: Huvec-12, normal human umbilical vein endothelial cell line; test: MTT cytotoxicity, normal cell line control; format: cell-based; settings: Homo sapiens, Endothelial cell, Huvec-12 normal cell line
Protocol: as §2

[9] = system: L02, normal human hepatic cell line; test: MTT cytotoxicity, normal cell line control; format: cell-based; settings: Homo sapiens
Protocol: as §2

[10] = system: Acinetobacter baumanii ATCC19606; test: Antibacterial broth dilution MIC; format: cell-based; settings: Acinetobacter baumannii, ATCC19606
Protocol: as §1

[11] = system: Enterococcus faecalis ATCC29212; test: Antibacterial broth dilution MIC; format: cell-based
Protocol: as §1

[12] = system: Escherichia coli ATCC 25922; test: Antibacterial broth dilution MIC; format: cell-based; settings: ATCC25922
Protocol: as §1

[13] = system: Micrococcus luteus SC-1; test: Antibacterial broth dilution MIC; format: cell-based; settings: SC1
Protocol: as §1

[14] = system: Staphylococcus aureus ATCC29213; test: Antibacterial broth dilution MIC; format: cell-based
Protocol: as §1

[15] = system: MRSA shha-01; test: microbe, parasite or virus in culture; format: cell-based; settings: Staphylococcus aureus
[16] = system: Mycobacterium tuberculosis H37Rv; design: method as in earlier work; settings: M. tuberculosis H37Rv; cited from earlier work
[17] = Epimerization/interconversion of hemiaminal isomers followed by HPLC; format: physicochemical; settings: non-aqueous solvents
Description: An interesting feature we identified during HPLC studies is that compounds 7 and 6 epimerize/interconvert in […] solvents (e.g., MeOH or CH3CN); this interconversion also was noted under neat conditions following periods of long-term storage. […] The possibility interchange of these two pairs of compounds was postulated (Supplementary Fig. 34B). […] It is indeed interesting to consider that cyclic hemiaminal installation in ilamycins C1, C2, E1, and E2 is likely reflective of a transient C33 aldehyde and that the αOH orientation is preferred; presumably this is driven to some extent by the fixed stereochemical orientations at C24 and C32 in each respective case (Fig. 3f). By virtue of this interconversion chemistry it is significant to note that assays carried out with these agents likely involved the use of isomeric mixtures of 6/7 and 3/4 and no one specific isomer.

Row | Compound | MIC [1] [µM] | MIC [2] [µM] | IC50 [3] [µM] | IC50 [4] [µM] | IC50 [5] [µM] | IC50 [6] [µM] | IC50 [7] [µM] | IC50 [8] [µM] | IC50 [9] [µM] | MIC [10] [µM] | MIC [11] [µM] | MIC [12] [µM] | MIC [13] [µM] | MIC [14] [µM] | MIC [15] [µM] | MIC [16] [µg/mL] | stability [17]
1 | C=CC(C)(C)n1cc(C[C@@H]2NC(=O)[C@H](C/C=C/C)NC(=O)[C@H](CC(C)C)NC(=O)[C@H](CC(C)C)N(C)C(=O)[C@H](C)NC(=O)[C@H](Cc3ccc(O)c([N+](=O)[O-])c3)NC(=O)[C@H](CC(C)C)N(C)C2=O)c2ccccc21 [compound 1, ilamycin B1] (cyclo(A[NMeL]L[Gly(E-crotyl)][Trp(1-(1,1-Me2-allyl))][NMeL][Tyr(3-NO2)])) | > 126 | 98.9 (≈ 100 µg/mL) | > 50 | > 50 | > 50 | > 50 | > 50 | > 50 | > 50 | 126 (≈ 128 µg/mL) | > 126 | > 126 | > 126 | > 126 | > 126 | – | –
2 | CC=CCC1NC(=O)C(CC(C)C)NC(=O)C(CC(C)C)N(C)C(=O)C(C)NC(=O)C(Cc2ccc(O)c([N+](=O)[O-])c2)NC(=O)C(CC(C)C)N(C)C(=O)C(Cc2cn(C(C)(C)C3CO3)c3ccccc23)NC1=O (centres unmarked) [compound 2, ilamycin B2] (cyclo([ξNle(4,5-dehydro)][X1][NMeL][Tyr(3-NO2)]A[NMeL]L); configuration not given here) | > 124 | 2.4 (≈ 2.47 µg/mL) | 13.8 | 24.5 | 7.1 | 8.9 | 17.4 | 18.6 | 24.6 | 124 (≈ 128 µg/mL) | > 124 | > 124 | > 124 | > 124 | > 124 | – | –
3 | CC=CCC1NC(=O)C(CC(C)C)N2C(=O)C(CC(C)C2O)N(C)C(=O)C(C)NC(=O)C(Cc2ccc(O)c([N+](=O)[O-])c2)NC(=O)C(CC(C)C)N(C)C(=O)C(Cc2cn(C(C)(C)C3CO3)c3ccccc23)NC1=O (centres unmarked) [compound 3, ilamycin C1] | – | – | – | – | – | – | – | – | – | – | – | – | – | – | – | < 1.3 | –
4 | CC=CCC1NC(=O)C(CC(C)C)NC(=O)C(CC(C)C(=O)O)N(C)C(=O)C(C)NC(=O)C(Cc2ccc(O)c([N+](=O)[O-])c2)NC(=O)C(CC(C)C)N(C)C(=O)C(Cc2cn(C(C)(C)C3CO3)c3ccccc23)NC1=O (centres unmarked) [compound 5, ilamycin D] (cyclo([X2]L[ξNle(4,5-dehydro)][X1][NMeL][Tyr(3-NO2)]A); configuration not given here) | 30.3 (≈ 32.1 µg/mL) | 1.2 (≈ 1.27 µg/mL) | > 50 | > 50 | > 50 | > 50 | > 50 | > 50 | > 50 | 121 (≈ 128 µg/mL) | > 121 | > 121 | > 121 | > 121 | > 121 | – | –
5 | C=CC(C)(C)n1cc(C[C@@H]2NC(=O)[C@H](C/C=C/C)NC(=O)[C@H](CC(C)C)N3C(=O)[C@H](C[C@H](C)[C@H]3O)N(C)C(=O)[C@H](C)NC(=O)[C@H](Cc3ccc(O)c([N+](=O)[O-])c3)NC(=O)[C@H](CC(C)C)N(C)C2=O)c2ccccc21 [compound 6, ilamycin E1] | – | – | – | – | – | – | – | – | – | – | – | – | – | – | – | – | reasonably stable
6 | C=CC(C)(C)n1cc(C[C@@H]2NC(=O)[C@H](C/C=C/C)NC(=O)[C@H](CC(C)C)NC(=O)[C@H](C[C@H](C)C(=O)O)N(C)C(=O)[C@H](C)NC(=O)[C@H](Cc3ccc(O)c([N+](=O)[O-])c3)NC(=O)[C@H](CC(C)C)N(C)C2=O)c2ccccc21 [compound 8, ilamycin F] (cyclo(A[NMeGlu(4S-Me)]L[Gly(E-crotyl)][Trp(1-(1,1-Me2-allyl))][NMeL][Tyr(3-NO2)])) | 30.7 (≈ 32 µg/mL) | 1.2 (≈ 1.25 µg/mL) | > 50 | > 50 | > 50 | > 50 | > 50 | > 50 | > 50 | 123 (≈ 128 µg/mL) | > 123 | > 123 | > 123 | > 123 | > 123 | – | –
